Paper PMC9959676 (Molecules, 2023)
Read-outs that look alike come from different tables or passages of the source.

Key:
Escherichia coli = test: Antibacterial agar-well diffusion; type: cell-based; conditions: sample 100 mg/5 mL in DMSO; ceftriaxone sodium 20 mg/10 mL; 37 °C, 24 h; 6 mm wells
Experimental: (§1) After sterilizing the Mueller Hinton agar medium on plates in an autoclave and allowing it to cool to roughly 45 °C, a 100 µL standard inoculum was aseptically mixed, chilled till 37 °C, and 6 mm wells were formed in the inoculated plates. The volume of 100 μL (100 mg/5 mL in DMSO), ceftriaxone sodium (20 mg/10 mL in DMSO) as a positive control, and pure DMSO as a negative control; 30 μL of the sample solution was incorporated into these wells. These primed plates were incubated at 37 °C for 24 h prior to record inhibitory zones in millimeters.

Bacillus pumilus = test: Antibacterial agar-well diffusion; type: cell-based; conditions: sample 100 mg/5 mL in DMSO; ceftriaxone sodium 20 mg/10 mL; 37 °C, 24 h; 6 mm wells
Experimental: as §1

Staphylococcus aureus = test: Antibacterial agar-well diffusion; type: cell-based; conditions: sample 100 mg/5 mL in DMSO; ceftriaxone sodium 20 mg/10 mL; 37 °C, 24 h; 6 mm wells
Experimental: as §1

Pseudomonas aeruginosa = test: Antibacterial agar-well diffusion; type: cell-based; conditions: sample 100 mg/5 mL in DMSO; ceftriaxone sodium 20 mg/10 mL; 37 °C, 24 h; 6 mm wells
Experimental: as §1

urease = urease (Canavalia ensiformis, UniProt P07374); test: biochemical; type: biochemical; conditions: for folds more urease inhibition than standard Thiourea: relative to Thiourea IC50
Chain of urease (P07374 whole entry, looked up): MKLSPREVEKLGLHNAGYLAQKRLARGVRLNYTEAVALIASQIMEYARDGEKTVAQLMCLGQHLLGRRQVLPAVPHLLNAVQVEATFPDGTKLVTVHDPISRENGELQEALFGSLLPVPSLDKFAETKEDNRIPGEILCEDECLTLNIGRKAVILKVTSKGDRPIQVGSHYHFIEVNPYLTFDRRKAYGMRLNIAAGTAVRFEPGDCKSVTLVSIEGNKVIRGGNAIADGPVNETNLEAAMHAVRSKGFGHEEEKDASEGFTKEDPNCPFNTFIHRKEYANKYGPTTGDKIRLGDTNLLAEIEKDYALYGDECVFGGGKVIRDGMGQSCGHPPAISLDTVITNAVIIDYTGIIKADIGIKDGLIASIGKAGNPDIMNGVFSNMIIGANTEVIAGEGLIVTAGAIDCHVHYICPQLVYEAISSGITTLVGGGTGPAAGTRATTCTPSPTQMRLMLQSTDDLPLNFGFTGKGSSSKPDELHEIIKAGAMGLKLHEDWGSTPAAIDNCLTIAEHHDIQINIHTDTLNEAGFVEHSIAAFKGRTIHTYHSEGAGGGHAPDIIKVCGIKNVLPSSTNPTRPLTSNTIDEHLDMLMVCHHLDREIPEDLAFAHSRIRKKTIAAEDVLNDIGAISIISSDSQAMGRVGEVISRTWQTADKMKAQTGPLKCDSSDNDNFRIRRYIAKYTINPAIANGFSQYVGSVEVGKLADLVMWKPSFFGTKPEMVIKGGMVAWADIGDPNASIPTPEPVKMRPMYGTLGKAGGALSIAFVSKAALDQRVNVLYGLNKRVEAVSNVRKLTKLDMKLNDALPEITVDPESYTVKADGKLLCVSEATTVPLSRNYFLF
Experimental: The activity performed was an improved procedure of the Berthelot assay. […] For 5 min, the mixture was incubated at 37 °C. Each well in a 96-well plate received 40 µL of urea stock solution (20 mM); incubated for 10 min at 37 °C. Afterwards, 115 µL phenol hypochlorite (45 µL phenol + 70 µL alkali) per well was added. Furthermore, all the contents were incubated for 10 min at 37 °C. Absorbance at 625 nm was measured. Using the provided formula, the % of enzyme-inhibition and IC-50 values were computed Inhibition (%age) = [Control − test/100(control)] where Control = [Total enzyme activity minus inhibitor]. The test is the test compounds’ activity

[1] = DPPH free radical scavenging assay; conditions: 1.0 mL sample 0.5 mg/mL + 2 mL DPPH 0.2 mg/mL, 30 min, 517 nm
Experimental: The DPPH assay was carried out to estimate the antioxidant potential among all the compounds [29]. Then, 2 mL (0.2 mg/mL in methyl alcohol) of DPPH was mixed with 1.0 mL (0.5 mg/mL in methyl alcohol) of the sample solution in a test tube. All the reaction tubes were covered with aluminum foil and kept aside for 30 min to complete the reaction. The activity was carried out in a dark room. […] A UV-visible spectrophotometer was employed to observe a reduction in the concentration of free radicals at 517 nm. The absorbance of the control (1.0 mL methanol + 2 mL DPPH solution) was also measured. All samples were evaluated in a triplicate manner, and the mean results were recorded. The standard antioxidant (ascorbic acid) was evaluated and set as a reference/standard. The percentage of inhibition (%) was calculated using the following formula in terms of scavenging activity(S):S (%) = [(Ab − Aa)/Ab] × 100(1) where Ab = Absorbance of control; and Aa = Absorbance of the test sample

thoracic aorta segments = test: Inhibition of phenylephrine-induced contraction on isolated aorta rings; set-up: species or system male Wistar rats; conditions: compounds 10^−4 M in organ bath, phenylephrine 10^−6 M, n = 5; for inhibition at 100 µM: Rattus norvegicus, read-out: %ge inh. of Phenylephrine Cont. (±SEM)
Experimental: (§2) Cervical disruption was used to eliminate male Wistar rats weighing 200 g and 300 g. The thoracic aorta segments (3 mm to 5 mm) were slightly pressed and […]. The tissues were placed in an organ bath filled with 10 mL of Krebs-Henseleit solution and kept at 37 °C. Then 95% oxygen and 5% carbon dioxide were passed through the above-mentioned solution. To record organ responses to phenylephrine, (10^−6 M) (Sigma, St. Louis, MO, USA) simulated contractions; isometric transducers and Gemini recorders (Ugo Basile, Varese, Italy) were assembled. Aortic rings were recon traced with phenylephrine (10^−6 M) and subjected to acetylcholine (10^−6 M) for recording endothelium-dependent relaxations (EDR). All synthesized compounds along with the standard (valsartan) were mixed in DMSO; whereas synthesized derivatives of concentration 10^−4 M were added in an organ bath. In conscious rats, systolic blood pressure was recorded by applying the tail-cuff method. Wistar rats of 200 g to 250 g weight were selected and divided into groups of five individuals. The chemicals were injected intraperitoneally at a dosage of 80 mg/kg body weight. The tail-cuff and a piezoelectric pulse sensor were coupled to a blood pressure analyzer and were positioned at the base of the tail (May 9610, Ankara, Turkey).
(§3) All results were presented as the mean of SEM. (n = 5) and test compounds were employed for statistical significance determination.

conscious rats = test: Antihypertensive effect, systolic blood pressure by tail-cuff method in conscious rats; type: in vivo, Wistar rats; conditions: 80 mg/kg intraperitoneally, n = 5, Control 108.28 ± 6.87, DMSO 81.10 ± 3.21
Experimental: as §2, §3

[2] = urease, pH 7.0, 37 °C, read-out: IC50 ± SEM

SMILES | Zone of Inhibition Gram -Ve Bacteria E. coli Mean ± SEM (Escherichia coli) [millimeters] | Zone of Inhibition Gram +ve Bacteria B.pumilus Mean ± SEM (Bacillus pumilus) [millimeters] | Zone of Inhibition Gram +ve Bacteria S. aureus Mean ± SEM (Staphylococcus aureus) [millimeters] | Zone of Inhibition Gram -Ve Bacteria P. aeruginosa Mean ± SEM (Pseudomonas aeruginosa) [millimeters] | IC50 (urease; [2]) [nM] | %Age Inhibition ± SEM [1] [%] | %ge inh. of Phenylephrine Cont. (±SEM) (thoracic aorta segments) [%] | Mean of Systolic Blood Pressure ± SEM (conscious rats) | IC50 (urease) [nM] | inhibition at 100 µM (thoracic aorta segments) [%] | folds more urease inhibition than standard Thiourea (urease) [folds]
CCCCC(=O)N(Cc1ccc(-c2ccccc2-c2nn[nH]n2)cc1)C(C(=O)Oc1cccc2ccccc12)C(C)C (stereo not drawn) [AV9, naphthalen-1-yl 2-(N-((2′-(2H-tetrazol-5-yl)-[1,1′-biphenyl]-4 yl)methyl)pentanamido)-3methyl butanoate] | 09.73 ± 0.23 | 12.76 ± 0.84 | 14.40 ± 0.37 | 10.90 ± 0.40 | 2260 ± 1040 | 83.8 ± 0.64 | 68.3 ± 4.7 | – | – | – | –
CCCCC(=O)N(Cc1ccc(-c2ccccc2-c2nn[nH]n2)cc1)C(C(=O)Oc1ccc(C=O)cc1)C(C)C (stereo not drawn) [AV6, 4-formylphenyl2-(N-((2′-(2H-tetrazol-5-yl)-[1, 1′-biphenyl]-4yl)methyl)pentanamido)-3methyl butanoate] | 09.73 ± 0.44 | 11.76 ± 1.06 | 12.86 ± 0.72 | 10.73 ± 0.28 | 2130 ± 970 | 76.3 ± 0.46 | 67.4 ± 5.1 | 81.21 ± 3.21 | – | – | –
CCCCC(=O)N(Cc1ccc(-c2ccccc2-c2nn[nH]n2)cc1)C(C(=O)Oc1ccccc1C(=O)O)C(C)C (stereo not drawn) [AV11, 2-((2-(N-((2′-(2H-tetrazole-5-yl)-[1,1′-biphenyl]-4yl)methyl)pentanamido)-3-methylbutanoyl)oxy) benzoic acid] | 10.01 ± 0.55 | 10.66 ± 0.52 | 12.53 ± 0.68 | 11.46 ± 0.53 | – | 95.6 ± 0.54 | – | 72.71 ± 3.21 | 2190 ± 170 | 70.8 ± 7.7 | –
CCCCC(=O)N(Cc1ccc(-c2ccccc2-c2nnn[nH]2)cc1)C(C(=O)Oc1ccc(N)cc1)C(C)C (stereo not drawn) [AV4, 4-aminophenyl 2-(N-((2′-(2H-tetrazol-5yl) -[1,1′-biphenyl]-4yl)methyl)pentanamido)-3methyl butanoate] | 10.63 ± 0.40 | 10.46 ± 0.67 | 10.16 ± 0.17 | 10.31 ± 0.47 | – | – | – | 79.56 ± 2.78 | 3190 ± 950 | 69.4 ± 5.4 | –
CCCCC(=O)N(Cc1ccc(-c2ccccc2-c2nn[nH]n2)cc1)C(C(=O)OC(C(=O)c1ccccc1)c1ccccc1)C(C)C (stereo not drawn) [AV1, 2-oxo-1,2-diphenylethyl 2-(N-((2′-(2H-tetrazol-5yl)-[1,1′-biphenyl]-4-yl)methyl)pentanamido)-3methyl butanoate] | 11.06 ± 0.55 | 10.33 ± 0.40 | 10.83 ± 0.31 | 10.36 ± 0.28 | 2560 ± 320 | 73.9 ± 0.49 | 67.3 ± 4.7 | 81.78 ± 3.87 | – | – | –
CCCCC(=O)N(Cc1ccc(-c2ccccc2-c2nn[nH]n2)cc1)C(C(=O)Oc1ccc(C=O)cc1OC)C(C)C (stereo not drawn) [AV2, 4-formyl-2-methoxyphenyl 2(N-((2′-(2H-tetrazole-5-yl)-[1,1′-biphenyl]-4yl)methyl)pentanamido)-3-methyl butanoate] | 11.90 ± 0.26 | 12.26 ± 0.69 | 12.90 ± 0.81 | 09.33 ± 0.58 | 280 ± 150 | 96.0 ± 0.49 | 76.4 ± 6.8 | – | – | – | 4
CO/N=C(\C(=O)N[C@@H]1C(=O)N2C(C(=O)O)=C(CSc3nc(=O)c(=O)[nH]n3C)CS[C@H]12)c1csc(N)n1 [Ceftriaxone, ceftriaxone sodium, reference compound] | 21.90 ± 0.18 | 22.13 ± 0.14 | 24.60 ± 0.51 | 23.33 ± 0.43 | – | – | – | – | – | – | –
CCCCC(=O)N(Cc1ccc(-c2ccccc2-c2nn[nH]n2)cc1)C(C(=O)Oc1ccc(CC(N)C(=O)O)cc1)C(C)C (stereo not drawn) [AV7, 3-(4-((2-(N-((2′-(2H-tetrazol-5yl)-[1,1′-biphenyl]-4 yl)methyl)pentanamido)-3methylbutanoyl)oxy)phenyl)-2amino-propanoic acid] | 10.96 ± 0.18 | 11.13 ± 0.80 | 12.10 ± 0.37 | 10.76 ± 0.53 | – | – | – | 85.61 ± 3.32 | 8590 ± 1120 | 62.4 ± 2.7 | –
CCCCC(=O)N(Cc1ccc(-c2ccccc2-c2nn[nH]n2)cc1)C(C(=O)Oc1cc(C)ccc1C(C)C)C(C)C (stereo not drawn) [AV8, 2-isopropyl-5-methylphenyl 2-(N-((2′-(2H-tetrazol-5yl)-[1, 1′-biphenyl]-4 yl)methyl)pentanamido)-3methyl butanoate] | 11.21 ± 0.41 | 12.6 ± 0.60 | 12.66 ± 1.06 | 12.23 ± 0.27 | – | 95.3 ± 0.55 | 71.6 ± 6.5 | 71.56 ± 4.32 | – | – | 3
O=C1O[C@H]([C@@H](O)CO)C(O)=C1O [Ascorbic acid, reference compound] | – | – | – | – | – | 96.4 ± 0.52 | – | – | – | – | –
NC(N)=S [Standard Thiourea, Thiourea, reference compound] | – | – | – | – | 4240 ± 130 | – | – | – | – | – | –
CCCCC(=O)N(Cc1ccc(-c2ccccc2-c2nn[nH]n2)cc1)C(C(=O)O)C(C)C (stereo not drawn) [AV0, 2-(N-((2′-(2H-tetrazole-5-yl)-[1,1′-biphenyl]-4yl)-methyl)-pentanamido)-3-methyl butanoic acid, reference compound] | 10.40 ± 0.69 | 11.36 ± 0.49 | 12.13 ± 0.72 | 12.43 ± 0.67 | – | 64.6± 0.50 | – | 82.41 ± 4.32 | 3210 ± 950 | 65.3 ± 3.6 | –
